The values that follow come from article PMC9186491, “Novel Small Molecule Tyrosine Kinase 2 Pseudokinase Ligands Block Cytokine-Induced TYK2-Mediated Signaling Pathways” (Frontiers in Immunology, 2022).

SMILES strings stand for the structures. Values after ≈ are worked out from the molar mass of the structure shown. Read-outs that look alike come from different tables or passages of the source. A value given as a limit tells only on which side of the number the result lay.

Series [1] concerns IL23-induced TYK2/phosphoSTAT3 (Tyr705) in Kit225 T cells. Kind of series: Kit225 T cell assay for IL23-induced TYK2/phosphoSTAT3 activity. The series is classed as cell-based, human. The note with it: Homo sapiens, KIT225, read-out: IC50 IL23-induced-STAT3 Phosphorylation. On the procedure: The cells were treated with serially diluted compounds for 1 hour and stimulated with 100 ng/mL human recombinant IL23 (R&D Systems) for 20 minutes. The treated cells were then lysed and cellular phosphorylated-STAT3 (Tyr705) levels were measured by AlphaLISA (PerkinElmer, Cat# ALSU-PST3) according to the manufacturer’s instructions.

Series [2] has as its system IFNα-induced TYK2/phosphoSTAT1 (Tyr701) in Kit225 T cells. Description: Kit225 T cell assay for IFNα-induced TYK2/phosphoSTAT1 activity. The series is classed as cell-based, human. The following applies: Homo sapiens, KIT225, read-out: IC50 IFNα-induced-STAT1 Phosphorylation. On the procedure: The cells were treated with serially diluted compounds for 1 hour and stimulated with 80 ng/mL human recombinant IFNα (R&D Systems) for 15 minutes. The treated cells were then lysed and cellular phosphorylated-STAT1 (Tyr701) levels were measured by AlphaLISA (PerkinElmer, Cat#ALSU-PST1) according to the manufacturer’s instructions.

For series [3], the system named is IFNα-induced CXCL10 production in human whole blood. Kind of series: IFNα-induced CXCL10 production in human whole blood. The series is classed as cell-based. The method, then: Human whole blood [drawn with Ethylenediaminetetraacetic acid (EDTA) as anti-coagulant] was obtained from Zen-Bio Inc. (Durham, NC). […] The plasma was collected for detection of C-X-C motif chemokine 10 (CXCL10, IP10) secretion. CXCL10 was measured by Human CXCL10/IP-10 AlphaLISA Kit (PerkinElmer, #AL259 C/F) according to the manufacturer’s instructions.

A short description of a further series: GSH. Type of series: in vitro ADME.
The next series in a line: LM T1/2, Mk. The series is classed as in vitro ADME. The note with it: monkey, liver microsomes. A general note: Microsomes from liver hold many membrane-bound enzymes, among them those of drug oxidation.
The next series in a line: LM T1/2, D. The series is classed as in vitro ADME. The note with it: dog, liver microsomes.
The next series is described as follows: Solubility (PBS/Fas/Fes). The series is classed as physicochemical.
In series [4] the target is T1, TYK2 JH2 pseudokinase domain (Homo sapiens, UniProt P29597).
T1 construct: purchased Eurofins DiscoverX Corporation (contract assay)
Description: KdELECT competition binding assay, TYK2 JH2. The note with it: isolated TYK2 JH2 domain. The method, then:
(§1) The KdELECT competition assays were performed to test the binding affinity of compounds to the JH1 kinase region or JH2 pseudokinase region in TYK2 or JAK by ligand competition with JH1 or JH2 protein segments. The assay was carried out at Eurofins DiscoverX Corporation following the established standard protocol (DiscoverX, San Diego, CA). In this assay, compounds that bind to the kinase or pseudokinase protein regions prevent the protein binding to the immobilized ligand and reduce the amount of kinase matter captured on the solid surface. […] Dissociation constants (Kds) for test compound-kinase interactions are calculated by measuring the amount of kinase captured on the solid support as a function of the test compound concentration. […] The ligated beads were blocked with excess biotin and washed with blocking buffer to remove unbound ligand and to reduce nonspecific binding. […] All reactions were performed in polypropylene 384-well plates with a final volume of 20 μL. […] The beads were then re-suspended in the elution buffer and incubated at room temperature with shaking for 30 minutes. The kinase concentration in the eluant was measured by qPCR. Two replicates were performed and averaged to obtain the Kd measurement.

The target in the next series is CYP450 2C9 (Homo sapiens, UniProt P11712). Kind of series: CYP450 inhibition, 2C9. The series is classed as in vitro ADME.
Another series addresses CYP450 3A4 (Homo sapiens, UniProt P08684). Description: CYP450 inhibition, 3A4. Type of series: in vitro ADME. The following applies: 3A4(m); read-out: CYP450 3A4(m).
The target of another series is CYP450 2C19 (Homo sapiens, UniProt P33261). Kind of series: CYP450 inhibition, 2C19. Type of series: in vitro ADME.
For the next series, the target named is T2, TYK2 JH1 kinase domain (Homo sapiens, UniProt P29597).
T2 construct: purchased Eurofins DiscoverX Corporation (contract assay)
T2 sequence (P29597 897-1176 limits assumed): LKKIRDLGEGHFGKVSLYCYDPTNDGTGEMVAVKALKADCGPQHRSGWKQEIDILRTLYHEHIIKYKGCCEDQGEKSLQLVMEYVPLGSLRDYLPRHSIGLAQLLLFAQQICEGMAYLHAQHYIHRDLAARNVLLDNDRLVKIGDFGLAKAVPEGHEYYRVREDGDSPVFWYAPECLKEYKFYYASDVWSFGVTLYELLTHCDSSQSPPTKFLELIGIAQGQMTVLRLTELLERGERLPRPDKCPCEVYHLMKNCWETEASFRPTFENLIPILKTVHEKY
Description: KdELECT competition binding assay, TYK2 JH1. The following applies: isolated TYK2 JH1 domain. On the procedure: as §1

The nature of the next series: LM T1/2, R. The series is classed as in vitro ADME. The note with it: rat, liver microsomes.
A further series is described as follows: LM T1/2, H. The series is classed as in vitro ADME. The following applies: human, liver microsomes.
In a further series the target is T3, CYP450 1A2 (Homo sapiens, UniProt P05177).
T3 sequence (P05177 1-516): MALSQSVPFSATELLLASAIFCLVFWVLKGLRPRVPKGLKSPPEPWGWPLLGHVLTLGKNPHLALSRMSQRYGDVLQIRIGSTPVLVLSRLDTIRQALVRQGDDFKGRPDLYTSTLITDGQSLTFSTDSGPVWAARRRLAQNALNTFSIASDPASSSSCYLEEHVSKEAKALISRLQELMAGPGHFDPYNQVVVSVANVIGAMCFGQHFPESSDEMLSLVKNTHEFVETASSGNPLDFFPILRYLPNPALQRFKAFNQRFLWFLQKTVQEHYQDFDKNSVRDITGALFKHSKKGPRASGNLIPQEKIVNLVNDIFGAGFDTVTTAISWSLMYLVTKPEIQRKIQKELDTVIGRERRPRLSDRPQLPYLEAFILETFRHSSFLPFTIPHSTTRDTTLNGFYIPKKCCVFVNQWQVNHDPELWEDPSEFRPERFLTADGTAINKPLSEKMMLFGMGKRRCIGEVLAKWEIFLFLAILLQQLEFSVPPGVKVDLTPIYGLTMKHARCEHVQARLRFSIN
Description: CYP450 inhibition, 1A2. Type of series: in vitro ADME.

A further series has as its target CYP450 2D6 (Homo sapiens, UniProt P10635). Kind of series: CYP450 inhibition, 2D6. The series is classed as in vitro ADME.
A further series can be described thus: LM T1/2, M. The series is classed as in vitro ADME. The following applies: mouse, liver microsomes.
The next series concerns panel of 98 kinases. Kind of series: Kinome screening panel (DiscoverX scanEdge). Type of series: binding. The following applies: 1 µM; 91 non-mutant kinases. The method, then:
For compound selectivity across a multi-kinase panel, compound binding affinity to each kinase or pseudokinase protein region was assessed using the DiscoverX scanEdge screening. Compounds were screened at a concentration of 1,000 nM in competition binding assays at Eurofins DiscoverX Corporation following the established standard protocol (DiscoverX, San Diego, CA), as described previously in the KdELECT competition binding assay. Competition with test compounds for binding to resin conjugated affinity ligand was employed to determine the “hits”, which are identified by measuring the amount of kinase captured in test versus control samples by using a quantitative PCR method that detects the associated DNA label. This measurement assesses compound selectivity against a panel of 98 kinases including kinases from the protein kinase A, G, and C family group (AGC), Ca^2+/calmodulin-dependent protein kinase class of enzymes (CAMK), group of cyclin-dependent kinase (CDK), mitogen-activated protein kinase (MAPK), glycogen synthase kinase (GSK) and CDC-like kinase (CLK) (CMGC), Casein kinase 1 (CK1), group of Ste 7, Ste 11 and Ste 20 kinases (STE), Tyrosine Kinases (TK), Tyrosine Kinase-Like group (TKL), lipid, and atypical kinase families, and other mutant forms.

The mark [5] stands for this setting: Homo sapiens, read-out: IFNa-induced-CXCL10 Production in Human Whole Blood IC50, Average.
The mark [6] stands for this setting: Homo sapiens, read-out: IFNa-induced-CXCL10 Production in Human Whole Blood IC50, Donor 1.
Where [7] appears, read: Homo sapiens, read-out: IFNa-induced-CXCL10 Production in Human Whole Blood IC50, Donor 2.
Where [8] appears, read: Homo sapiens, read-out: IFNa-induced-CXCL10 Production in Human Whole Blood IC50, Donor 3.

T1 sequence (P29597 589-875 limits assumed): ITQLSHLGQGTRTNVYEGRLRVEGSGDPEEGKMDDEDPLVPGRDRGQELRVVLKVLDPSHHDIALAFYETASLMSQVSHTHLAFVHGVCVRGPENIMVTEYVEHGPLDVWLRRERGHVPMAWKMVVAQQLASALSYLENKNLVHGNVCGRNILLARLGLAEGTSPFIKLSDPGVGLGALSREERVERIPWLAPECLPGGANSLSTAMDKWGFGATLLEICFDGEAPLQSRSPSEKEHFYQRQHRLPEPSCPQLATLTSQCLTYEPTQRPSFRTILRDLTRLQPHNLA
Chain of CYP450 2C19 (P33261 whole entry, the tested form may be a part): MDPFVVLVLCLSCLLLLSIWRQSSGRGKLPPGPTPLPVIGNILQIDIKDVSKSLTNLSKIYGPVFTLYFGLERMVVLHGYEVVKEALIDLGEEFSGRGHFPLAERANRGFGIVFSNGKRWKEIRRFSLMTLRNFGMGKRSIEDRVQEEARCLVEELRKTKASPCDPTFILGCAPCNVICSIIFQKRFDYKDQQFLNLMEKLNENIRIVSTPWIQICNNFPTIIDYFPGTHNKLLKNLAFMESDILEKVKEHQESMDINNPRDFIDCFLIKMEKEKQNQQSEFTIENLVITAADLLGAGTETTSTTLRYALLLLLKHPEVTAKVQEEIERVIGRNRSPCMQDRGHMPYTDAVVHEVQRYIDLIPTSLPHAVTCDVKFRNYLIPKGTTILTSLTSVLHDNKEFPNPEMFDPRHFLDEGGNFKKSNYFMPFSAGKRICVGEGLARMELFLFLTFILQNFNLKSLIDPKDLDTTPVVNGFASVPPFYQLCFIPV
Chain of CYP450 2D6 (P10635 whole entry): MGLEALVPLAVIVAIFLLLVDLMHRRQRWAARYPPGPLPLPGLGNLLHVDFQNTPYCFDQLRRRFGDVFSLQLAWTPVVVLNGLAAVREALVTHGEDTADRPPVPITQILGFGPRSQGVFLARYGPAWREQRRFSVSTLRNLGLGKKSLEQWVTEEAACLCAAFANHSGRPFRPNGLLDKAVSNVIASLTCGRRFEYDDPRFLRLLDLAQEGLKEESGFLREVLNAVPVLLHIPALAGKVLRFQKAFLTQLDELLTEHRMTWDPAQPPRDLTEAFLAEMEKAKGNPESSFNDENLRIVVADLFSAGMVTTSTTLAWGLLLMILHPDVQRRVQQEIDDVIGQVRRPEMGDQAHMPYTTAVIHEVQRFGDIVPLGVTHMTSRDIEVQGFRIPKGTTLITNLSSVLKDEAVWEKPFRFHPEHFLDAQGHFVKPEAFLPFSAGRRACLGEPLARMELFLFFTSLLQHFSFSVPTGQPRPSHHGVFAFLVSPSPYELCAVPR
Chain of CYP450 2C9 (P11712 whole entry): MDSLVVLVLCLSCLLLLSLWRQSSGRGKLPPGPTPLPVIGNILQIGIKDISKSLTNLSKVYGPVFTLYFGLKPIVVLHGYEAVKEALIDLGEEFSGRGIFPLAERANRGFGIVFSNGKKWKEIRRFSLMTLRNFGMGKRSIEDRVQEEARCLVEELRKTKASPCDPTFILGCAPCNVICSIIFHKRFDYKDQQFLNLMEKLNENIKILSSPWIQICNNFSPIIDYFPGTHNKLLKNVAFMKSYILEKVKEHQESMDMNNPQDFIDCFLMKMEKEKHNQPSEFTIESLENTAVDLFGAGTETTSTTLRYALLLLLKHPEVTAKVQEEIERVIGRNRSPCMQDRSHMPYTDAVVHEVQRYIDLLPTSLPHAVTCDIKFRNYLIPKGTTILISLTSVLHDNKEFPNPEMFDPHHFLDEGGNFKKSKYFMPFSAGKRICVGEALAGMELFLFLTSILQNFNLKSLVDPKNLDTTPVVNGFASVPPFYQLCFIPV
Chain of CYP450 3A4 (P08684 whole entry): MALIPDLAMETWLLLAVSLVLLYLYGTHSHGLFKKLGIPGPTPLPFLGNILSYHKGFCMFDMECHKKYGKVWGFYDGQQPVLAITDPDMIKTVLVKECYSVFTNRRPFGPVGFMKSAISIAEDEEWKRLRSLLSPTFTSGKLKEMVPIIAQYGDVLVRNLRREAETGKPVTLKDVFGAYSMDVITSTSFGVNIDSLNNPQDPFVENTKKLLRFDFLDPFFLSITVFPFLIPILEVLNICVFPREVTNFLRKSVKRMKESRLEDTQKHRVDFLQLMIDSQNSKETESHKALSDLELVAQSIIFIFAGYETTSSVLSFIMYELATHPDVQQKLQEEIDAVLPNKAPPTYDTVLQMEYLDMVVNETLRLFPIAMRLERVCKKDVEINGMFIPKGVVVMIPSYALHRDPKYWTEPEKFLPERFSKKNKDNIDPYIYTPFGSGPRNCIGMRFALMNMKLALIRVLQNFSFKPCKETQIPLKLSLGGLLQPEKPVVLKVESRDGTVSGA

In the case of `CC[C@@H]1CN(C(=O)NCC(F)(F)F)C[C@@H]1c1cnc2cnc3[nH]ccc3n12` [Upadacitinib], the IC50 in series [1] amounted to 22 nM; in [2] it was 7 nM; in series [3] (setting [5]), 120 nM; in series [3] (setting [6]), 130 nM; in series [3] (setting [7]) it was 110 nM; in series [3] (setting [8]), 130 nM.

In the case of `CNC(=O)c1nnc(NC(=O)C2CC2)c2[nH]c(-c3ccccc3OC)cc12` [SHR2178], in “GSH”, the GSH entry is “negative”. Besides, the half-life (in general, the time in which the quantity being followed falls by half) in the series “LM T1/2, Mk” was 99 min; in the series “LM T1/2, D”, 40 min; in “LM T1/2, R”, 24 min; in “LM T1/2, H” it was 34 min; in “LM T1/2, M” it was 55 min. Besides, the solubility (commonly the dissolved amount per volume that the medium holds) in the series “Solubility (PBS/Fas/Fes)” (FaSSIF, read-out: Solubility, Fas) turned out to be 1.7 µM (≈ 0.621 µg/mL); in “Solubility (PBS/Fas/Fes)” (FeSSIF (Fes [sic]), fessif, read-out: Solubility, Fes), 3.5 µM (≈ 1.28 µg/mL); in “Solubility (PBS/Fas/Fes)” (PBS, aqueous buffer, read-out: Solubility, PBS) it was 0.1 µM (≈ 0.0365 µg/mL). For the same compound, the results for the Kd (in series [4]; on TYK2 JH1 kinase domain) were 0.34 nM and above 20000 nM, respectively. Also, the IC50 at CYP450 2C9 came out at 30000 nM; on CYP450 3A4 it was 30000 nM; on CYP450 2C19 it was 30000 nM; against CYP450 1A2, 4000 nM; against CYP450 2D6 it was 30000 nM.

Consider `N#CC[C@H](C1CCCC1)n1cc(-c2ncnc3[nH]ccc23)cn1` [Ruxolitinib], for which the IC50 amounted to 3 nM in series [1]; 12 nM in series [2]; 1900 nM in [3] (setting [5]); 2100 nM in series [3] (setting [6]); 2800 nM in series [3] (setting [7]); 740 nM in series [3] (setting [8]).

`CNC(=O)c1cnc(Nc2ccc(N3CCC3)cn2)cc1Nc1ccccc1S(C)(=O)=O` [SHR1274]: in the series on panel of 98 kinases, the “No. of Hits S (1)” value worked out at 1, the “No. of Hits S (10)” value worked out at 1 and the “No. of Hits S (35)” value came out at 2. Also, the Kd (as a rule, the free concentration of one partner at which half of the binding sites on the other are occupied at equilibrium, for simple one-to-one binding) in [4] came out at 0.053 nM.

With `[2H]C([2H])([2H])NC(=O)c1nnc(NC(=O)C2CC2)cc1Nc1cccc(-c2nc3c(s2)CN(S(C)(=N)=O)C3)c1OC` (stereo not drawn) [SHR3110], the IC50 in [1] worked out at 24 nM; in [2], 16 nM; in series [3] (setting [5]), 570 nM; in series [3] (setting [6]), 480 nM; in series [3] (setting [7]) it was 710 nM; in series [3] (setting [8]) it was 520 nM.

As to `O=C(Nc1nc2cccc(-c3ccc(CN4CCS(=O)(=O)CC4)cc3)n2n1)C1CC1` [Filgotinib], the IC50 came out at 3800 nM in series [1]; 250 nM in series [2]; 730 nM in series [3] (Homo sapiens; average of Donor 1-3; read-out: IFNa-induced-CXCL10 Production in Human Whole Blood IC50, Average); 770 nM in series [3] (Homo sapiens; read-out: IFNa-induced-CXCL10 Production in Human Whole Blood IC50, Donor 1); 790 nM in series [3] (Homo sapiens; read-out: IFNa-induced-CXCL10 Production in Human Whole Blood IC50, Donor 2); 630 nM in [3] (Homo sapiens; read-out: IFNa-induced-CXCL10 Production in Human Whole Blood IC50, Donor 3).

Regarding `Cn1cc(-c2cn3nccc3c(-c3cnn([C@]4(CC#N)C[C@@H](C#N)C4)c3)n2)cn1` [Ropsacitinib], the IC50 in [3] (human whole blood, IFNα 16 hours; read-out: TYK2-associated IFNα-induced-CXCL10 Production in Human Whole Blood: IC50) was found to be 2000 ± 960 nM.
